This data set deals with RAW264.7 cells. In words: Cytotoxicity assay (XTT, cell viability). The following applies: 4 days, at concentrations of 2.5, 5, 10, and 25 μM (FIG. 7 to FIG. 10). As to the method:
The cells were treated with 50 μl of XTT reagent per well, then reacted for four hours. An absorbance change thereof was measured at 490 nm and 650 nm (reference wavelength) by ELISA (enzyme linked immunosorbent assay) reader (Molecular Devices, USA), and a cell viability was expressed as a percentage.

Regarding `C[C@@H]1O[C@@H](Oc2c(-c3ccc(O)c(O)c3)oc3cc(O)cc(O)c3c2=O)[C@H](O)[C@H](O)[C@H]1O` [quercitrin, Quercitrin], the cytotoxicity result is listed as “no cytotoxicity”.

The values above are taken from patent publication US20240325484A1, “COMPOSITION COMPRISING HORSE CHESTNUT EXTRACT” (ANGIOLAB, INC., priority 2021, published 2024).
